# In patent US11691972B2, “Compounds for targeted degradation of BRD9” (C4 Therapeutics, Inc., priority 2020, dated 2023):
# Molecular target: T1, BRD9 (Homo sapiens, UniProt Q9H8M2)
# T1 sequence (Q9H8M2 1-597): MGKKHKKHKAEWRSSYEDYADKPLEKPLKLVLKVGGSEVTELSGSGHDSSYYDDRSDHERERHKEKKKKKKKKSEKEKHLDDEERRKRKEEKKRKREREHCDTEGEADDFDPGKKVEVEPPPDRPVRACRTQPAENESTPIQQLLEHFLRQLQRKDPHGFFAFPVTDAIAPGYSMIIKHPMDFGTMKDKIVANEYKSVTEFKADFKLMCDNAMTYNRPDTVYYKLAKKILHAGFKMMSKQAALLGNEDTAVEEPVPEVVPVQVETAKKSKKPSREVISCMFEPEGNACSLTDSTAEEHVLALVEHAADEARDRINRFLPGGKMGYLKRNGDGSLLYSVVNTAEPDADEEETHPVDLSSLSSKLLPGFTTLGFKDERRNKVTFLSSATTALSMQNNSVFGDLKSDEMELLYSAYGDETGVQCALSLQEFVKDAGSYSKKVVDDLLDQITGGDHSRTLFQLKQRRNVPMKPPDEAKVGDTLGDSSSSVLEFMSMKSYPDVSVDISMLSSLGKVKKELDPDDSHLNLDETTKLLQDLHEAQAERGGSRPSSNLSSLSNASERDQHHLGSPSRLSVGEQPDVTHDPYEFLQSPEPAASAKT
# Experiment: HiBiT BRD9 degradation assay in 293T.166 (BRD9-HiBiT) cells
# Type: cell-based
# Design: endogenously expressing BRD9 with HiBiT fusion tag via CRISPR; host or cells: 293T.166 (BRD9-HiBiT), also expressing LgBiT ectopically
# Details: Table 1; 293T.166 cells, 2.0 hours; class symbols; read-out: HiBiT-Degradation 293T.166 BRD9 2.0 hours (DC50)
# Procedure, shortened: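 Luminescence from the Nano-Glo HiBiT lytic reagent quantified BRD9 loss after compounds (top 10 μM, half-log, 11 points, duplicates) were incubated 2 h at 37° C. with 10,000 293T.166 BRD9-HiBiT/LgBiT cells per well, with controls lacking compound or lacking reagent.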
row,SMILES,DC50
1,"COc1cc(-c2cn(C)c(=O)c3[nH]ncc23)cc(F)c1CN1CCN(C(=O)Cc2c(F)cc(NC3CCC(=O)NC3=O)cc2F)CC1 (stereo not shown) [Compound 164, 3-[3,5-difluoro-4-[2-[4-[[2-fluoro-6-methoxy-4-(6-methyl-7-oxo-1H-pyrazolo[3,4-c]pyridin-4-yl)phenyl]methyl]piperazin-1-yl]-2-oxo-ethyl]anilino]piperidine-2,6-dione]",0.1 to 0.5 µM
2,"COc1cc(-c2cn(C)c(=O)c3[nH]ncc23)cc(OC)c1CNc1ccc(CC(=O)N2CCC(c3ccc(NC4CCC(=O)NC4=O)cc3)CC2)cc1 (stereo not shown) [Compound 165, 3-[4-[1-[2-[4-[[2,6-dimethoxy-4-(6-methyl-7-oxo-1H-pyrazolo[3,4-c]pyridin-4-yl)phenyl]methylamino]phenyl]acetyl]-4-piperidyl]anilino]piperidine-2,6-dione]",< 0.1 µM
3,"COc1cc(-c2cn(C)c(=O)c3[nH]ncc23)cc(OC)c1CNc1cccc(C(=O)N2CCC(c3ccc(NC4CCC(=O)NC4=O)cc3)CC2)c1 (stereo not shown) [Compound 166, 3-[4-[1-[3-[[2,6-dimethoxy-4-(6-methyl-7-oxo-1H-pyrazolo[3,4-c]pyridin-4-yl)phenyl]methylamino]benzoyl]-4-piperidyl]anilino]piperidine-2,6-dione]",< 0.1 µM
4,"COc1cc(-c2cn(C)c(=O)c3[nH]ncc23)cc(OC)c1CN1CCN(C(=O)Cc2ccc(-c3ccc(NC4CCC(=O)NC4=O)cc3)cc2)CC1 (stereo not shown) [Compound 167, 3-[4-[4-[2-[4-[[2,6-dimethoxy-4-(6-methyl-7-oxo-1H-pyrazolo[3,4-c]pyridin-4-yl)phenyl]methyl]piperazin-1-yl]-2-oxo-ethyl]phenyl]anilino]piperidine-2,6-dione]",< 0.1 µM
5,"COc1cc(-c2cn(C)c(=O)c3[nH]ncc23)cc(OC)c1CC1CCN(CCN2CCC(c3ccc(NC4CCC(=O)NC4=O)cc3)CC2)CC1 (stereo not shown) [Compound 168, 3-[4-[1-[2-[4-[[2,6-dimethoxy-4-(6-methyl-7-oxo-1H-pyrazolo[3,4-c]pyridin-4-yl)phenyl]methyl]-1-piperidyl]ethyl]-4-piperidyl]anilino]piperidine-2,6-dione]",< 0.1 µM
6,"COc1cc(-c2cn(C)c(=O)c3[nH]ncc23)cc(Cl)c1CN1CCC(C(=O)Nc2ccc(NC3CCC(=O)NC3=O)cc2F)CC1 (stereo not shown) [Compound 169, 1-[[2-chloro-6-methoxy-4-(6-methyl-7-oxo-1H-pyrazolo[3,4-c]pyridin-4-yl)phenyl]methyl]-N-[4-[(2,6-dioxo-3-piperidyl)amino]-2-fluoro-phenyl]piperidine-4-carboxamide]",< 0.1 µM
7,COc1cc(-c2cn(C)c(=O)c3[nH]ncc23)cc(OC)c1CNc1ccc2c(c1)CCN(C(=O)C1CCN(c3ccc(NC4CCC(=O)NC4=O)cc3)CC1)C2 (stereo not shown) [Compound 170],< 0.1 µM
8,"COc1cc(-c2cn(C)c(=O)c3[nH]ncc23)cc(Cl)c1CN1CCc2c(cccc2NC2CCN(c3ccc(NC4CCC(=O)NC4=O)cc3)CC2)C1 (stereo not shown) [Compound 171, 3-[4-[4-[[2-[[2-chloro-6-methoxy-4-(6-methyl-7-oxo-1H-pyrazolo[3,4-c]pyridin-4-yl)phenyl]methyl]-3,4-dihydro-1H-isoquinolin-5-yl]amino]-1-piperidyl]anilino]piperidine-2,6-dione]",< 0.1 µM
9,"COc1cc(-c2cn(C)c(=O)c3cnccc23)cc(Cl)c1CN1CCC(N2CCN(c3ccc(NC4CCC(=O)NC4=O)cc3F)CC2)C(F)(F)C1 (stereo not shown) [Compound 177, 3-[4-[4-[1-[[2-chloro-6-methoxy-4-(2-methyl-1-oxo-2,7-naphthyridin-4-yl)phenyl]methyl]-3,3-difluoro-4-piperidyl]piperazin-1-yl]-3-fluoro-anilino]piperidine-2,6-dione]",< 0.1 µM
10,COc1cc(-c2cn(C)c(=O)c3[nH]ncc23)cc(OC)c1CN1CCC(N2CCN(c3ccc(NC4CCC(=O)NC4=O)cc3F)CC2)C(F)(F)C1 (stereo not shown) [Compound 182],< 0.1 µM
11,COc1cc(-c2cn(C)c(=O)c3[nH]ncc23)cc(Cl)c1CN1CCC(N2CCN(c3ccc(NC4CCC(=O)NC4=O)cc3F)CC2)C(F)(F)C1 (stereo not shown) [Compound 183],< 0.1 µM
12,COc1cc(-c2cn(C)c(=O)c3cnccc23)cc(OC)c1CN1CCC(N2CCN(c3ccc(NC4CCC(=O)NC4=O)cc3F)CC2)C(F)(F)C1 (stereo not shown) [Compound 184],< 0.1 µM
13,COc1cc(-c2cn(C)c(=O)c3cnccc23)cc(OC)c1CN1CCC(N2CCN(c3ccc(NC4CCC(=O)NC4=O)cc3C(F)(F)F)CC2)C(F)(F)C1 (stereo not shown) [Compound 185],< 0.1 µM
14,COc1cc(-c2cn(C)c(=O)c3cnccc23)cc(Cl)c1CN1CCC(N2CCN(c3ccc(NC4CCC(=O)NC4=O)cc3Cl)CC2)C(F)(F)C1 (stereo not shown) [Compound 186],< 0.1 µM
15,COc1cc(-c2cn(C)c(=O)c(C)c2C)cc(OC)c1CN1CCC(N2CCN(c3ccc(NC4CCC(=O)NC4=O)cc3Cl)CC2)C(F)(F)C1 (stereo not shown) [Compound 187],< 0.1 µM
16,COc1cc(-c2cn(C)c(=O)c3cnccc23)cc(OC)c1CN1CCC(N2CCN(c3ccc(NC4CCC(=O)NC4=O)cc3Cl)CC2)C(F)(F)C1 (stereo not shown) [Compound 188],< 0.1 µM
17,COc1cc(-c2cn(C)c(=O)c3cnccc23)cc(F)c1CN1CCC(N2CCN(c3ccc(NC4CCC(=O)NC4=O)cc3F)CC2)C(F)(F)C1 (stereo not shown) [Compound 189],< 0.1 µM
18,COc1cc(-c2cn(C)c(=O)c(C)c2C)cc(Cl)c1CN1CCC(N2CCN(c3ccc(NC4CCC(=O)NC4=O)cc3F)CC2)C(F)(F)C1 (stereo not shown) [Compound 190],< 0.1 µM
19,COc1cc(-c2cn(C)c(=O)c(C)c2C)cc(F)c1CN1CCC(N2CCN(c3ccc(NC4CCC(=O)NC4=O)cc3F)CC2)C(F)(F)C1 (stereo not shown) [Compound 191],< 0.1 µM
20,COc1cc(-c2cn(C)c(=O)c3ccccc23)cc(Cl)c1CN1CCC(N2CCN(c3ccc(NC4CCC(=O)NC4=O)cc3F)CC2)C(F)(F)C1 (stereo not shown) [Compound 192],< 0.1 µM
21,Cn1cc(-c2ccc(CN3CCC(N4CCN(c5ccc(NC6CCC(=O)NC6=O)cc5F)CC4)C(F)(F)C3)c(OC(F)(F)F)c2)c2ccncc2c1=O (stereo not shown) [Compound 193],< 0.1 µM
22,COc1cc(-c2cn(C)c(=O)c3cnccc23)cc(Cl)c1CN1CCC(N2CCN(c3ccc(NC4CCC(=O)NC4=O)nc3)CC2)C(F)(F)C1 (stereo not shown) [Compound 194],< 0.1 µM
23,COc1cc(-c2cn(C)c(=O)c(C)c2C)cc(OC)c1CN1CCC(N2CCN(c3ccc(NC4CCC(=O)NC4=O)nc3)CC2)C(F)(F)C1 (stereo not shown) [Compound 195],< 0.1 µM
24,COc1cc(-c2cn(C)c(=O)c(C)c2C)cc(Cl)c1CN1CCC(N2CCN(c3ccc(NC4CCC(=O)NC4=O)nc3)CC2)C(F)(F)C1 (stereo not shown) [Compound 196],< 0.1 µM
25,"COc1cc(-c2cn(C)c(=O)c(C)c2C)cc(Cl)c1CN1CCC(C2CCN(c3ccc(NC4CCC(=O)NC4=O)cc3F)CC2)C(F)(F)C1 (stereo not shown) [Compound 197, 3-[4-[4-[1-[[2-chloro-6-methoxy-4-(1,4,5-trimethyl-6-oxo-3-pyridyl)phenyl]methyl]-3,3-difluoro-4-piperidyl]-1-piperidyl]-3-fluoro-anilino]piperidine-2,6-dione]",< 0.1 µM
26,COc1cc(-c2cn(C)c(=O)c(C)c2C)cc(OC)c1CN1CCC(C2CCN(c3ccc(NC4CCC(=O)NC4=O)cc3F)CC2)C(F)(F)C1 (stereo not shown) [Compound 198],< 0.1 µM
27,COc1cc(-c2cn(C)c(=O)c3cnccc23)cc(Cl)c1CN1CCC(C2CCN(c3ccc(NC4CCC(=O)NC4=O)cc3F)CC2)C(F)(F)C1 (stereo not shown) [Compound 199],< 0.1 µM
28,COc1cc(-c2cn(C)c(=O)c3cnccc23)cc(Cl)c1CN1CCC(C2CCN(c3ccc(NC4CCC(=O)NC4=O)cc3Cl)CC2)C(F)(F)C1 (stereo not shown) [Compound 200],< 0.1 µM
